Measured values as given in patent publication US7034059B2, “Methods of using norfluoxetine” (Sepracor Inc., priority 2001, dated 2006).
Read-outs that look alike come from different tables or passages of the source.

How the values were obtained:
[1] = tested on: human lung fibroblast cell line WI-38; test: Inhibition of IL-1β-induced PGE2 production, whole cell-based assay; settings: for PGE2 / PGE2 (pg/ml): IL-1β 100 pg/mL, 24 hours; for IC50: Homo sapiens; for anti-inflammatory activity in vitro, R- versus S-enantiomer: conclusion from Tables 1-4
Description: Compounds were tested for anti-inflammatory activity using a whole cell-based assay, wherein the human lung fibroblast cell line WI-38 was cultured in Eagle's basal media supplemented with 10% fetal calf serum (FCS) in 48-well tissue culture dishes in a humidified 7% CO2 atmosphere at 37° C. When the cells reached confluence, they were fed with fresh media for 24 hours. The media was removed and fresh media, containing either 5% or 10% FCS, was added to the cells. […] Interleukin-1β (Calbiochem) in 0.1% bovine serum albumin in phosphate buffered saline was added in a 1 μL aliquot to give a final concentration of 100 pg/mL. The cells were cultured for 24 hours and the amount of PGE2 secreted into the cell culture media was assayed using a PGE2 enzyme immunoassay kit (Cayman Chemicals, Ann Arbor, Mich.). Inhibition of PGE2 production is indicative of anti-inflammatory activity.
The IC50 values of enantiomerically pure R- and S-norfluoxetine were determined by incubation of the WI-38 cells with varying concentrations of the compounds in question ([…]). The PGE2 produced for each concentration was plotted against the concentration of compound using the 6 safit 4.0 program (Erithacus software) and the IC50 determined by fitting the data to the 4-parameter equation.

[2] = tested on: serotonin reuptake; settings: Physicians' Desk Reference; cited from earlier work
[3] = Serum levels of norfluoxetine after fluoxetine treatment (Prozac package insert); format: in vivo; settings: human, oral, humans, after treatment for 30 days with 40 mg per day of fluoxetine, approximate conversion of ng/ml
From the text: It is noteworthy that these values, especially that of R-norfluoxetine, fall within values that may be obtained in serum in humans.

[4] = Table 3, 10% fetal calf serum-containing media, compound 0.5 uM
[5] = Table 3, 10% fetal calf serum-containing media, compound 10 uM
[6] = Table 4, 5% fetal calf serum-containing media, compound 0.5 uM
[7] = Table 4, 5% fetal calf serum-containing media, compound 10 uM
[8] = Table 1, 10% fetal calf serum-containing media, compound 0.5 uM
[9] = Table 1, 10% fetal calf serum-containing media, compound 10 uM
[10] = Table 2, 5% fetal calf serum-containing media, compound 0.5 uM
[11] = Table 2, 5% fetal calf serum-containing media, compound 10 uM

SMILES	PGE2 (pg/ml) [1, 8]	PGE2 (pg/ml) [1, 9]	PGE2 [1, 10] [pg/mL]	PGE2 (pg/ml) [1, 11]	PGE2 [1, 8] [pg/mL]	PGE2 (pg/ml) [1, 10]	other results
CNCCC=C1c2ccccc2CCc2ccccc21 [nortriptylene]	–	–	–	–	–	–	PGE2 [1, 4]: 2040 pg/mL; PGE2 [1, 5]: 648 pg/mL; PGE2 [1, 6]: 880 pg/mL; PGE2 [1, 7]: 331 pg/mL
Cc1ccc(-c2cc(C(F)(F)F)nn2-c2ccc(S(N)(=O)=O)cc2)cc1 [celebrex]	low	low	16	low	–	–	PGE2 (pg/ml) [1, 4]: low; PGE2 (pg/ml) [1, 5]: low; PGE2 (pg/ml) [1, 6]: low; PGE2 (pg/ml) [1, 7]: low
CC(C(=O)O)c1cccc(C(=O)c2ccccc2)c1 (racemic) [rac-ketoprofen, ketoprofen]	–	low	119	low	–	–	–
NCC[C@H](Oc1ccc(C(F)(F)F)cc1)c1ccccc1 [(S)-norfluoxetine, S-norfluoxetine]	–	–	483	–	809	–	IC50 ([1]; WI-38 cells, 0.009-20 concentrations, 4-parameter fit, read-out: IC50 (PGE2 produced)): ~1400 nM; PGE2 [1, 9]: 486 pg/mL; PGE2 [1, 11]: 112 pg/mL; anti-inflammatory activity in vitro, R- versus S-enantiomer [1]: substantially equipotent; potency in inhibiting serotonin uptake [2]: potent and selective serotonin uptake inhibition
NCC[C@@H](Oc1ccc(C(F)(F)F)cc1)c1ccccc1 [(R)-norfluoxetine, R-norfluoxetine]	–	–	255	–	714	–	IC50 ([1]; WI-38, read-out: IC50 (PGE2 produced)): ~790 nM; PGE2 [1, 9]: 159 pg/mL; PGE2 [1, 11]: 31 pg/mL; anti-inflammatory activity in vitro, R- versus S-enantiomer [1]: substantially equipotent; potency in inhibiting serotonin uptake [2]: significantly less potent than racemic fluoxetine
C[C@H](C(=O)O)c1cccc(C(=O)c2ccccc2)c1 [(S)-ketoprofen]	low	low	145	low	–	–	–
C[C@@H](C(=O)O)c1cccc(C(=O)c2ccccc2)c1 [(R)-ketoprofen]	low	low	–	low	–	low	–
CNCCC(Oc1ccc(C(F)(F)F)cc1)c1ccccc1 (racemic) [rac-fluoxetine, (±)-N-methyl-γ-[4-(trifluoromethyl)-phenoxy]benzenepropanamine]	low	low	–	low	–	low	PGE2 [1, 4]: 545 pg/mL; PGE2 [1, 5]: 156 pg/mL; PGE2 [1, 6]: 22 pg/mL; PGE2 (pg/ml) [1, 7]: low
NCCC(Oc1ccc(C(F)(F)F)cc1)c1ccccc1 (racemic) [rac-norfluoxetine, (±)-γ-[4-(trifluoromethyl)-phenoxy]benzenepropanamine]	–	low	–	low	189	low	concentration at 30 days [3]: 230 to 830 nM
